Laboratory results as given in PubChem BioAssay AID2060499 (Molecular Pharmacology Branch, DTP, NCI, 2025).
pIC50: −log10 of the molar value.

System: 777334-354-R2-J4-PDC tumor spheroids with HUVEC/MSC, viability
Experiment: Anticancer human tumor 777334-354-R2-J4-PDC patient-derived pancreatic adenocarcinoma cell line growth inhibition [GQUAD]
Details: for pIC50: curve of first compound; for viability, T/C: stronger effect = lower value
Outline: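 Viability of tumor cells grown as complex spheroids with endothelial and stromal cells, exposed to drug combinations. Top concentration at or near clinical Cmax (else 10 microM), diluted in half-log increments.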

[1] = second compound 0.0316 µM, first compound 0.0316 µM
[2] = second compound 0.0316 µM, first compound 0.1 µM
[3] = second compound 0.0316 µM, first compound 0.316 µM
[4] = second compound 0.0316 µM, first compound 1 µM
[5] = second compound 0.0316 µM, first compound 3.16 µM
[6] = second compound 0.0316 µM, first compound 10 µM
[7] = second compound 0.1 µM, first compound 0.0316 µM
[8] = second compound 0.1 µM, first compound 0.1 µM
[9] = second compound 0.1 µM, first compound 0.316 µM
[10] = second compound 0.1 µM, first compound 1 µM
[11] = second compound 0.1 µM, first compound 3.16 µM
[12] = second compound 0.1 µM, first compound 10 µM
[13] = second compound 0.316 µM, first compound 0.0316 µM
[14] = second compound 0.316 µM, first compound 0.1 µM
[15] = second compound 0.316 µM, first compound 0.316 µM
[16] = second compound 0.316 µM, first compound 1 µM
[17] = second compound 0.316 µM, first compound 3.16 µM
[18] = second compound 0.316 µM, first compound 10 µM
[19] = second compound 1 µM, first compound 0.0316 µM
[20] = second compound 1 µM, first compound 0.1 µM
[21] = second compound 1 µM, first compound 0.316 µM
[22] = second compound 1 µM, first compound 1 µM
[23] = second compound 1 µM, first compound 3.16 µM
[24] = second compound 1 µM, first compound 10 µM
[25] = second compound 3.16 µM, first compound 0.0316 µM
[26] = second compound 3.16 µM, first compound 0.1 µM
[27] = second compound 3.16 µM, first compound 0.316 µM
[28] = second compound 3.16 µM, first compound 1 µM
[29] = second compound 3.16 µM, first compound 3.16 µM
[30] = second compound 3.16 µM, first compound 10 µM
[31] = second compound 10 µM, first compound 0.0316 µM
[32] = second compound 10 µM, first compound 0.1 µM
[33] = second compound 10 µM, first compound 0.316 µM
[34] = second compound 10 µM, first compound 1 µM
[35] = second compound 10 µM, first compound 3.16 µM
[36] = second compound 10 µM, first compound 10 µM
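Further: spheroids exposed to compounds for 7 days before readout.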

For `O=C(c1cc(Cc2n[nH]c(=O)c3ccccc23)ccc1F)N1CCN(C(=O)C2CC2)CC1` + CN(C)c1ccc(Nc2c3ccc(NC(=O)CCN4CCCC4)cc3nc3cc(NC(=O)CCN4CCCC4)ccc23)cc1, the pIC50 (second compound 0.0316 µM) was < 5.00, the pIC50 (second compound 0.1 µM) was < 5.00 and the pIC50 (second compound 0.316 µM) was < 5.00. For the same molecule, the pIC50 (second compound 1 µM) was < 5.00, the pIC50 (second compound 3.16 µM) was < 5.00 and the pIC50 (second compound 10 µM) was < 5.00. For the same molecule, the viability, T/C [1] was 97.1%, the viability, T/C [2] was 104% and the viability, T/C [3] was 104%. For the same molecule, the viability, T/C [4] was 86%, the viability, T/C [5] was 84% and the viability, T/C [6] was 74.3%. It also gave a viability, T/C [7] of 88%, a viability, T/C [8] of 82.6% and a viability, T/C [9] of 93.5%. The viability, T/C [10] was 92.1%, the viability, T/C [11] was 88.5% and the viability, T/C [12] was 72.5%. It also gave a viability, T/C [13] of 80.6%, a viability, T/C [14] of 94.9% and a viability, T/C [15] of 97.2%. For the same molecule, the viability, T/C [16] was 81%, the viability, T/C [17] was 94.1% and the viability, T/C [18] was 66.7%. The viability, T/C [19] was 84.9%, the viability, T/C [20] was 89.8% and the viability, T/C [21] was 86.7%. It also gave a viability, T/C [22] of 86.2%, a viability, T/C [23] of 80.4% and a viability, T/C [24] of 65.4%. For the same molecule, the viability, T/C [25] was 79.7%, the viability, T/C [26] was 81.7% and the viability, T/C [27] was 68.3%. For the same molecule, the viability, T/C [28] was 76.2%, the viability, T/C [29] was 82.6% and the viability, T/C [30] was 69.1%. It also gave a viability, T/C [31] of 64.7%, a viability, T/C [32] of 76.7% and a viability, T/C [33] of 76.4%. It also gave a viability, T/C [34] of 81%, a viability, T/C [35] of 71% and a viability, T/C [36] of 66.9%.
For `O=c1[nH]cc(F)c(=O)[nH]1` + Cc1cnc(CNC(=O)c2c(=O)c3ccc(N4CCCN(C)CC4)nc3n3c2sc2ccccc23)cn1, the pIC50 (second compound 0.0316 µM) was < 5.00, the pIC50 (second compound 0.1 µM) was < 5.00 and the pIC50 (second compound 0.316 µM) was < 5.00. The pIC50 (second compound 1 µM) was < 5.00, the pIC50 (second compound 3.16 µM) was < 5.00 and the pIC50 (second compound 10 µM) was < 5.00. For the same molecule, the viability, T/C [1] was 97.7%, the viability, T/C [2] was 94.8% and the viability, T/C [3] was 91.9%. For the same molecule, the viability, T/C [4] was 87.9%, the viability, T/C [5] was 69.5% and the viability, T/C [6] was 64.5%. For the same molecule, the viability, T/C [7] was 82.4%, the viability, T/C [8] was 84.8% and the viability, T/C [9] was 89%. For the same molecule, the viability, T/C [10] was 80.1%, the viability, T/C [11] was 82% and the viability, T/C [12] was 68.3%. The viability, T/C [13] was 85.3%, the viability, T/C [14] was 82.8% and the viability, T/C [15] was 73.8%. It also gave a viability, T/C [16] of 75.8%, a viability, T/C [17] of 74.7% and a viability, T/C [18] of 66.5%. The viability, T/C [19] was 71.3%, the viability, T/C [20] was 66.8% and the viability, T/C [21] was 68%. The viability, T/C [22] was 67.7%, the viability, T/C [23] was 73.2% and the viability, T/C [24] was 65.7%. The viability, T/C [25] was 59.4%, the viability, T/C [26] was 73.2% and the viability, T/C [27] was 67.3%. The viability, T/C [28] was 61.6%, the viability, T/C [29] was 68.8% and the viability, T/C [30] was 56%. For the same molecule, the viability, T/C [31] was 57.7%, the viability, T/C [32] was 61.9% and the viability, T/C [33] was 59%. For the same molecule, the viability, T/C [34] was 59.7%, the viability, T/C [35] was 50.8% and the viability, T/C [36] was 51.8%.
In the case of `CC1COCCN1c1cc(-c2ccnn2C)c2ccnc(-c3ccn[nH]3)c2n1` (stereo unspecified) + CN(C)c1ccc(Nc2c3ccc(NC(=O)CCN4CCCC4)cc3nc3cc(NC(=O)CCN4CCCC4)ccc23)cc1, the pIC50 (second compound 0.0316 µM) was 5.90, the pIC50 (second compound 0.1 µM) was 5.97 and the pIC50 (second compound 0.316 µM) was 6.10. The pIC50 (second compound 1 µM) was 6.18, the pIC50 (second compound 3.16 µM) was 6.23 and the pIC50 (second compound 10 µM) was 6.26. For the same molecule, the viability, T/C [1] was 103%, the viability, T/C [2] was 84.2% and the viability, T/C [3] was 61.7%. It also gave a viability, T/C [4] of 53.9%, a viability, T/C [5] of 44.4% and a viability, T/C [6] of 29%. For the same molecule, the viability, T/C [7] was 106%, the viability, T/C [8] was 77% and the viability, T/C [9] was 66%. For the same molecule, the viability, T/C [10] was 53.5%, the viability, T/C [11] was 40.1% and the viability, T/C [12] was 30.6%. For the same molecule, the viability, T/C [13] was 93.9%, the viability, T/C [14] was 78% and the viability, T/C [15] was 59.4%. The viability, T/C [16] was 46.6%, the viability, T/C [17] was 38.4% and the viability, T/C [18] was 27.5%. For the same molecule, the viability, T/C [19] was 90.8%, the viability, T/C [20] was 77.1% and the viability, T/C [21] was 51.7%. For the same molecule, the viability, T/C [22] was 48.2%, the viability, T/C [23] was 37.2% and the viability, T/C [24] was 27.2%. For the same molecule, the viability, T/C [25] was 87.4%, the viability, T/C [26] was 65.2% and the viability, T/C [27] was 53.9%. For the same molecule, the viability, T/C [28] was 46.9%, the viability, T/C [29] was 38.5% and the viability, T/C [30] was 22.4%. For the same molecule, the viability, T/C [31] was 77.2%, the viability, T/C [32] was 66.6% and the viability, T/C [33] was 57.1%. For the same molecule, the viability, T/C [34] was 42.1%, the viability, T/C [35] was 32.4% and the viability, T/C [36] was 17.7%.
